Assay results reported in PubChem BioAssay (NCI).
Where “and” joins values, the source holds several entries; their conditions need not be identical. Equal entries are not always repeated.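 Dose response: 5 concentrations. Exposure: 48 h. Format: 96-well plates. Endpoint: linear interpolation; highest concentration if not reached. GI50 marks 50% less growth. TGI denotes the concentration required for complete inhibition of growth.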

Legend:
Assay in all cases: growth of human tumour cells (NCI), 48 h
[1] = test system: TK-10 renal
[2] = test system: SK-OV-3 ovarian
[3] = test system: UO-31 renal
[4] = test system: HL-60(TB) leukemia
[5] = test system: 786-0 renal
[6] = test system: M14 melanoma
[7] = test system: U251 CNS
[8] = test system: OVCAR-8 ovarian
[9] = test system: PC-3 prostate
[10] = test system: NCI/ADR-RES ovarian

| SMILES | TGI [1] | TGI [2] | TGI [3] | TGI [4] | TGI [5] | TGI [6] | TGI [7] | TGI [8] | TGI [9] | GI50 [1] | GI50 [3] | GI50 [4] | GI50 [5] | GI50 [6] | GI50 [7] | GI50 [8] | GI50 [2] | GI50 [10] | TGI [10] |
| --- | --- | --- | --- | --- | --- | --- | --- | --- | --- | --- | --- | --- | --- | --- | --- | --- | --- | --- | --- |
| CS(=O)(=O)OCCN1CCN(C(=O)c2ccc(Cl)c3c(Nc4ccc(S(=O)(=O)N=C(N)N)cc4)c4ccccc4nc23)CC1 | > 100 µM | > 100 µM | > 100 µM | > 100 µM | > 100 µM | > 100 µM | > 100 µM | > 100 µM |  |  |  |  |  |  |  |  |  |  |  |
| C[n+]1cn(CC(=O)c2ccccc2)c(C(N)=O)c1N | > 100 µM | > 100 µM | > 100 µM | > 100 µM | > 100 µM | > 100 µM | > 100 µM | > 100 µM |  |  |  |  |  |  |  |  |  |  |  |
| O=C1C2C(C(=O)N1Cc1ccccc1)N(Cc1ccccc1)C(=O)N2Cc1ccccc1 (stereo unspecified) | > 100 µM | > 100 µM | > 100 µM | > 100 µM | > 100 µM | > 100 µM | > 100 µM | > 100 µM |  |  |  |  |  |  |  |  |  |  |  |
| C/C(=N\NC(=S)N1CCC1)c1ccccn1 | > 79.3 µM | 5.7 µM | 15.3 µM | 3.57 µM | > 52.4 µM | 1.84 µM | > 82.6 µM | 12 µM | > 100 µM | 0.00375 µM | 0.0188 µM | 0.0045 µM | 0.0555 µM | 0.0229 µM | 0.00725 µM | 0.00715 µM |  |  |  |
| COC(=O)[C@]12CC[C@@H](C)[C@H](C)[C@@H]1C1=CC[C@@H]3[C@@]4(C)C(C=O)=C[C@@](C)(COS(C)(=O)=O)C4=CC[C@@]3(C)[C@]1(C)CC2 | 0.512 µM | 2.92 µM | 0.321 µM | 0.835 µM | 0.415 µM | 0.486 µM | 0.606 µM | 1.62 µM |  | 0.211 µM | 0.158 µM | 0.276 µM | 0.189 µM | 0.213 µM | 0.23 µM | 0.332 µM | 0.667 µM | 0.325 µM | 1.97 µM |
| CN1CCCc2nc3ccccc3n2C1 | > 100 µM | > 100 µM | > 100 µM | > 100 µM | > 100 µM | > 100 µM | > 100 µM | > 100 µM |  |  |  |  |  |  |  |  |  |  |  |
| O=C(Nc1ccccc1C(=O)NC(=O)c1ccccc1NC(=O)c1ccccc1)c1ccccc1 | 25.9 µM |  |  |  | 29.3 µM |  | 18.8 µM | 23 µM |  |  |  |  |  |  |  |  |  |  |  |
| N#Cc1ccccc1Sc1ccccc1N | > 100 µM | > 100 µM | > 100 µM | > 100 µM | > 100 µM |  | > 100 µM | > 100 µM |  |  |  |  |  |  |  |  |  |  |  |
| CCCCCCCCCCCCCC(=O)O[C@H]1CC[C@H](NC(=O)[C@H](OC)[C@H](O)[C@@H](O)[C@H](O)/C=C/C(C)C)C(=O)N(C)C1 | 15 µM and > 23.8 µM | 15 µM and > 23.8 µM | 15 µM and 8.93 µM | 2.43 µM and 3.71 µM | 15 µM and 3.18 µM | 1.75 µM and 0.413 µM | 15 µM and 3.06 µM | 15 µM and 3.59 µM |  | 0.05 µM | 0.0283 µM | 0.00238 µM | 0.00238 µM | 0.00238 µM | < 0.0015 µM | 0.00238 µM | 0.0194 µM |  |  |
| CCCCCCCCCC1CC(=O)OC23CCCC(=O)C12O3 (stereo unspecified) | > 100 µM | > 100 µM | > 100 µM | 69.2 µM | > 100 µM | > 100 µM | > 100 µM | > 100 µM |  |  |  |  |  |  |  |  |  |  |  |
